Data as given in patent US20170008888A1 (KYORIN PHARMACEUTICAL CO., LTD., priority 2014, published 2017).

Experiments:
[1] = system: collagen-induced arthritis mouse model; assay: Collagen-induced arthritis (CIA) mouse model: in-life disease score, paw thickness; format: in vivo, mouse (DBA/1J); details: for change in group average disease score - mean, Day versus Day 21 (start of treatment): Tofacitinib 15 mg/kg PO BID from D21
[2] = system: collagen-induced arthritis mouse model; assay: Collagen-induced arthritis (CIA) mouse model: histopathology of tibiofemoral and tarsal/phalangeal joints; format: in vivo, mouse (DBA/1J)
[3] = system: TLR4 signaling in primary human umbilical vein endothelial cells; assay: Cytokine response to TLR4 agonism (LPS) in primary HUVEC (ELISA); format: cell-based; details: for IL-8: 22 hr; for IL-6 response, in words: summary of Table 24
Procedure: (§1) In this example, the following commercially available inhibitors were tested:
(§2) The results were compared with test compound 61.
(§3) Pooled primary human umbilical vein endothelial cells (HUVEC) were obtained from Lonza (Allendale, N.J.) and maintained in either complete EGM-2 defined media (Lonza) or Medium 200 supplemented with Low Serum Growth Supplement (Life Technologies, Grand Island, N.Y.). Cells at low passage (<5) were seeded at 4e5 cells/ml and allowed to adhere overnight at 37° C. in a humidified atmosphere at 5% CO2. Cells were pre-treated with test compounds for 1 h prior to TLR2 or TLR4 stimulation. To test for the effects of TLR2 agonism, the TLR2 agonist peptide Pam3CysK4 (Santa Cruz Biotechnology, Dallas, Tex.) was used at 10 μg/ml. PHC-SKKK (Enzo Life Sciences, Farmingdale, N.Y.) served as the negative control peptide. To test for the effects of TLR4 agonism, LPS from E. coli 0111:B4 (EMD Millipore, Billerica, Mass.) was used at 100 ng/ml. Cells were incubated for 22 hr, after which the supernatant was collected and analyzed for cytokine concentrations by ELISA (Life Technologies). Absorbance at 450 nm was read using the Wallac 1420 Victor^2 multilabel microplate reader (Perkin Elmer, Waltham, Mass.).

[4] = system: TLR2 signaling in primary human umbilical vein endothelial cells; assay: Cytokine response to TLR2 agonism (Pam3CysK4) in primary HUVEC (ELISA); format: cell-based; details: for IL-8 response to TLR2 (Pam3CysK4) stimulation, in words: summary of Table 22
From the text: It has been reported in the literature that that ERK5 mediates TLR2-dependent inflammatory signaling in several cell types including human umbilical vein endothelial cells (HUVEC). See Wilhelmsen et al., J Biol Chem. 2012; 287:26478-94. Wilhelmsen et al. further reported that MEK1 negatively regulates TLR2 signaling in HUVECs, with pharmacological inhibition of MEK1 augmenting (IL-6, G-CSF, GM-CSF) or not changing (IL-8) pro-inflammatory cytokine release in response to TLR2 stimulation.
as §1, §2, §3

[5] = system: primary asthmatic human bronchial epithelial cells; assay: IL-17A- or IL-17F-mediated cytokine response by primary asthmatic human bronchial epithelial cells; format: cell-based; details: Epithelial cell, 0.25 μM, positive control, data not shown, read-out: inhibition of measured cytokines
Procedure: The virally immortalized, normal human bronchial epithelial cell line BEAS-2B was purchased from ATCC (Manassas, Va.). Primary bronchial epithelial cells isolated from a patient diagnosed with asthma were obtained from Lonza (Allendale, N.J.). Both cells were maintained in complete Bronchial Epithelial Cell Growth Medium (BEGM) (Lonza). Cells were seeded at 1e5 cells/ml and incubated at 37° C. in a humidified atmosphere at 5% CO2 overnight to adhere. Cells were pre-treated with test compounds (10 μM down by ⅕ in a 3- or 4-point serial dilution series) for 1 h at 37° C. in a humidified atmosphere at 5% CO2. DMSO at a final concentration of 0.1% served as the non-inhibited control. Budesonide (Selleck Chemicals, Houston, Tex.), a clinically approved glucocorticoid steroid for the treatment of asthma, was tested as a positive control at 0.25 μM. Cells were stimulated with 50 ng/ml of either human recombinant IL-17A or IL-17F (eBioscience, San Diego, Calif.), for 48 h. Supernatant was then collected and analyzed for cytokine concentrations using the Bio-Plex Pro Human Cytokine 17-Plex Panel (Bio-Rad Laboratories, Hercules, Calif.) according to the manufacturer's instructions. Magnetic beads were measured on the Bio-Plex MAGPIX multiplex reader instrument using the accompanying xPONENT 4.2 acquisition software (Bio-Rad Laboratories). Data were analyzed via the Bio-Plex Manager software v6.1 (Bio-Rad Laboratories). For the primary asthmatic bronchial epithelial cells, five (+IL-17F) to thirteen (+IL-17A) cytokines were in range of detection under the conditions used. […] Select cytokines were analyzed for comparison using the BEAS-2B cell line.
BLQ: cytokine levels were below limits of quantitation.

[6] = Group 2 (n=10): Tofacitinib 15 mg/kg PO BID D21-D42
[7] = Group 2: Tofacitinib 15 mg/kg PO BID D21-D42
[8] = 10 μM inhibitor, +100 ng/ml LPS
[9] = 10 μM inhibitor, No Stimulation
[10] = 5 μM inhibitor, +10 μg/ml PHC-SKKK (negative control peptide), 22 hr
[11] = 5 μM inhibitor, +10 μg/ml Pam3CysK4, 22 hr

C[C@@H]1CCN(C(=O)CC#N)C[C@@H]1N(C)c1ncnc2[nH]ccc12 [Tofacitinib, reference compound]
change in group average disease score - mean, Day versus Day 21 (start of treatment) ([1]; Day 21): 0.0
change in group average disease score - mean, Day versus Day 21 (start of treatment) ([1]; Day 24): 0.3
change in group average disease score - mean, Day versus Day 21 (start of treatment) ([1]; Day 26): 0.9
change in group average disease score - mean, Day versus Day 21 (start of treatment) ([1]; Day 28): 1.8
change in group average disease score - mean, Day versus Day 21 (start of treatment) ([1]; Day 31): 2.3
change in group average disease score - mean, Day versus Day 21 (start of treatment) ([1]; Day 33): 2.6
change in group average disease score - mean, Day versus Day 21 (start of treatment) ([1]; Day 35): 2.7
change in group average disease score - mean, Day versus Day 21 (start of treatment) ([1]; Day 37): 2.2
change in group average disease score - mean, Day versus Day 21 (start of treatment) ([1]; Day 39): 2.5
percent reduction in overall disease and total paw scores ([1]; treatment Day 21-42, Tofacitinib 15 mg/kg BID PO, doses in Table 28): about 55%
histopathology of hind-limb joints (knee, paw/tarsal), in words ([2]; Day 42, H&E): less effective at mitigating cartilage and periosteal erosion at the knee and ulceration and synovial hyperplasia than 46
Animals with normal tarsal joints (% of total n in group) [2, 6]: 40%
Number of animals with normal tarsal joints [2, 6]: 4
Tibiofemoral joint score: cartilage erosion/ulceration [2, 7]: 16.3
Tibiofemoral joint score: inflammation [2, 7]: 16.3
Tibiofemoral joint score: periosteal proliferation/erosion [2, 7]: 7.8
Tibiofemoral joint score: synovial hyperplasia [2, 7]: 5.0

C[S+]([O-])c1ccc(-c2nc(-c3ccncc3)c(-c3ccc(F)cc3)[nH]2)cc1 (stereo not drawn) [SB203580]
G-CSF [3, 8]: 318 ± 33 pg/mL
IL-6 [3, 8]: 112 ± 10 pg/mL
IL-8 [3, 8]: 1526 ± 54 pg/mL
G-CSF [3, 9]: 7 ± 9 pg/mL
IL-6 [3, 9]: 18 ± 5 pg/mL
IL-6 response, in words [3]: reduced
IL-8 ([4]; 10 μM inhibitor, +10 μg/ml PHC-SKKK (negative control peptide), 22 hr): 54 ± 12 pg/mL
IL-8 ([4]; 10 μM inhibitor, +10 μg/ml Pam3CysK4, 22 hr): 450 ± 23 pg/mL
IL-8 response to TLR2 (Pam3CysK4) stimulation, in words [4]: reduced the IL-8 response

O=C(NC[C@H](O)CO)c1ccncc1Nc1ccc(I)cc1F [AS703026]
IL-8 ([3]; 5 μM inhibitor, +100 ng/ml LPS): 1970 ± 126 pg/mL
G-CSF [3, 8]: 90 ± 13 pg/mL
IL-6 [3, 8]: 1368 ± 169 pg/mL
G-CSF [3, 9]: 30 ± 1 pg/mL
IL-6 [3, 9]: 529 ± 20 pg/mL
IL-6 response, in words [3]: Cytokine augmentation was observed
IL-8 [4, 10]: 0 ± 23 pg/mL
IL-8 [4, 11]: 732 ± 36 pg/mL
IL-8 response to TLR2 (Pam3CysK4) stimulation, in words [4]: moderate IL-8 augmentation

CCOc1cc(N2CCC(O)CC2)ccc1Nc1ncc2c(n1)N(C)c1ccccc1C(=O)N2C [XMD8-92]
G-CSF ([3]; 5 μM inhibitor, +100 ng/ml LPS): 111 ± 6 pg/mL
IL-6 ([3]; 5 μM inhibitor, +100 ng/ml LPS): 170 ± 21 pg/mL
IL-8 ([3]; 5 μM inhibitor, +100 ng/ml LPS): 1249 ± 42 pg/mL
G-CSF ([3]; 5 μM inhibitor, No Stimulation): 0 ± 1 pg/mL
IL-6 ([3]; 5 μM inhibitor, No Stimulation): 20 ± 1 pg/mL
IL-6 response, in words [3]: reduced
IL-8 [4, 10]: 0 ± 25 pg/mL
IL-8 [4, 11]: 199 ± 11 pg/mL
IL-8 response to TLR2 (Pam3CysK4) stimulation, in words [4]: reduced the IL-8 response

CCCC1O[C@@H]2C[C@H]3[C@@H]4CCC5=CC(=O)C=C[C@]5(C)[C@H]4[C@@H](O)C[C@]3(C)[C@]2(C(=O)CO)O1 (stereo partly drawn) [Budesonide, reference compound]
inhibition at […] [5]: < 50%
